Source: ChEMBL document CHEMBL5579837, “Dual 5-HT6/SERT ligands for mitigating neuropsychiatric symptoms of dementia exerting neuroprotection against amyloid-β toxicity, memory preservation, and antidepressant-like properties” (Eur J Med Chem, 2024)
Values after ≈ are worked out from the molar mass of the structure shown.

How the values were obtained:
[1] = molecular target: Voltage-gated inwardly rectifying potassium channel KCNH2 (Homo sapiens, UniProt Q12809); assay: Inhibition of hERG expressed in CHO cells measured for 30 mins by electrophysiological automated patch clamp assay; type: toxicity, cell-based
[2] = molecular target: 5-hydroxytryptamine receptor 6 (Homo sapiens, UniProt P50406)
Description: Displacement of [3H]-LSD from human 5-HT6 receptor extracted from CHO-K1 cell membrane assessed as inhibition constant incubated for 60 mins by microbeta2 scintillation counter analysis

physchem = conditions: PBS, pH 7.4
in vitro [3] = conditions: PAMPA
Description: Permeability of compound by PAMPA based LC-MS analysis

in vitro [4] = conditions: rat, liver microsomes
in vitro [5] = conditions: rat, liver microsomes; remark: listed apart in the source
in vitro [6] = conditions: mouse, HT-22 cells
Description: Neurotoxicity in mouse HT-22 cells incubated for 24 hrs by PrestoBlue reagent based assay

in vitro [7] = conditions: human, HepG2 cells
Description: Hepatotoxicity in human HepG2 cells incubated for 24 hrs by PrestoBlue reagent based assay

5-hydroxytryptamine receptor 6, sequence (P50406 whole entry): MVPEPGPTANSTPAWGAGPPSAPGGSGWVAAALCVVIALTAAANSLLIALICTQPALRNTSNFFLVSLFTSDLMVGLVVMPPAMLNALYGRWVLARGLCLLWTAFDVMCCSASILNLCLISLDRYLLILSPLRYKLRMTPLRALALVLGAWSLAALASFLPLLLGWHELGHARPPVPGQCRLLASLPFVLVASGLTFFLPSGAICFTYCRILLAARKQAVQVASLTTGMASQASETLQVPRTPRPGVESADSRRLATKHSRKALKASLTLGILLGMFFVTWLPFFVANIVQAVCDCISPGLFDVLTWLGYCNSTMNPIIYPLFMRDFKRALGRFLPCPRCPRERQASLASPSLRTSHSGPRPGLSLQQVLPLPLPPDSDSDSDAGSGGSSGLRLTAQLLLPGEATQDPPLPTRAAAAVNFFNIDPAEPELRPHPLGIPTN
Voltage-gated inwardly rectifying potassium channel KCNH2, sequence (Q12809 whole entry): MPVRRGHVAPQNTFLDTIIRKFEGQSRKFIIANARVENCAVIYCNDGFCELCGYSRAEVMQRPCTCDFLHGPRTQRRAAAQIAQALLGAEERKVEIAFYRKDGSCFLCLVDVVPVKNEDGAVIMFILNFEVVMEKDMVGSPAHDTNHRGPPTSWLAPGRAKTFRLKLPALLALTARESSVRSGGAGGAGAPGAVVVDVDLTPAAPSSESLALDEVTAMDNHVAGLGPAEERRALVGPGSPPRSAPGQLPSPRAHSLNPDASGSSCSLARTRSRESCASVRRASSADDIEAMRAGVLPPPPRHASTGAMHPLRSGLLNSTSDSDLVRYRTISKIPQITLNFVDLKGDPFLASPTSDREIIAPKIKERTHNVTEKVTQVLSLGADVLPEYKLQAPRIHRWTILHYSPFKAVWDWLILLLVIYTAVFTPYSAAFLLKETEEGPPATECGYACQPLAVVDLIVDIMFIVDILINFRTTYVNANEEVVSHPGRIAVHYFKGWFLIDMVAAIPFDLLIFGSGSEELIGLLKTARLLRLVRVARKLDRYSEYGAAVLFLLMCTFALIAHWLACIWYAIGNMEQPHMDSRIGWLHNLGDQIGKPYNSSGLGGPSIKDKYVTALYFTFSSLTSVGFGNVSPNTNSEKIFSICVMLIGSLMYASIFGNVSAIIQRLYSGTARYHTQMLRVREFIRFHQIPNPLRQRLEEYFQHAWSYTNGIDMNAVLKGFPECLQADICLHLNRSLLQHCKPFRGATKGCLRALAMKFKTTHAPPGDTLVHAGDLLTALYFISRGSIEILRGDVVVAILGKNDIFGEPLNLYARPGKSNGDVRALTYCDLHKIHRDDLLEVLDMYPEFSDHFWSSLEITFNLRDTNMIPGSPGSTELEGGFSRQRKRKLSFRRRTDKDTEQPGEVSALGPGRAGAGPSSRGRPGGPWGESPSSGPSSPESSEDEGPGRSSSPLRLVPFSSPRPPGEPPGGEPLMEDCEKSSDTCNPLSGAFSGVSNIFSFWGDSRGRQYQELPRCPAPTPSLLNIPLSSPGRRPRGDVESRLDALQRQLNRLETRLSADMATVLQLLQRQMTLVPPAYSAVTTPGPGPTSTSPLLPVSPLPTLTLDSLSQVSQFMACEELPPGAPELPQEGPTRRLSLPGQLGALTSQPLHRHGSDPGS

Structure (SMILES)	IC50 [1] [nM]	also measured
N#Cc1ccc2[nH]cc(CCN3CCN(c4cccc5c4ccn5S(=O)(=O)c4ccccc4)CC3)c2c1	8900	
O=S(=O)(c1ccccc1)n1ccc2c(N3CCN(CCCc4c[nH]c5ccc(F)cc45)CC3)cccc21	2900	
O=c1[nH]c2c(N3CCN(CCc4c[nH]c5ccc(Cl)cc45)CC3)cccc2n1Cc1ccccc1	4000	Ki [2]: 8 nM; solubility at 24 h (physchem): 23.4 µM (≈ 11.4 µg/mL); Papp (in vitro [3]): 2.75 ×10⁻⁶ cm/s; half-life (in vitro [4]): > 1 h; microsomal CLint (in vitro [5]): < 116 µL/min/mg; IC50 at 24 h (in vitro [6]): 47000 nM; IC50 at 24 h (in vitro [7]): 23000 nM
Cc1c(OCc2ccccc2)cccc1N1CCN(CCc2c[nH]c3ccc(C#N)cc23)CC1	3600	
O=S(=O)(c1ccccc1)n1ccc2c(N3CCN(CCc4c[nH]c5ccc(Cl)cc45)CC3)cccc21	21300	Ki [2]: 19 nM
Cc1c(OCc2ccccc2)cccc1N1CCN(CCc2c[nH]c3ccc(F)cc23)CC1	2800	
O=S(=O)(c1ccccc1)n1ccc2c(N3CCN(CCc4c[nH]c5ccc(F)cc45)CC3)cccc21	1300	
N#Cc1ccc2[nH]cc(CCCN3CCN(c4cccc5c4[nH]c(=O)n5Cc4ccccc4)CC3)c2c1	1200	
Cc1c(OCc2ccccc2)cccc1N1CCN(CCCc2c[nH]c3ccc(Cl)cc23)CC1	13600	
Cc1c(OCc2ccccc2)cccc1N1CCN(CCc2c[nH]c3ccc(Cl)cc23)CC1	6600	Ki [2]: 142 nM
N#Cc1ccc2[nH]cc(CCN3CCC(c4cccc5c(S(=O)(=O)c6ccccc6)c[nH]c45)CC3)c2c1	1100	
N#Cc1ccc2[nH]cc(CCCN3CCC(c4cccc5c(S(=O)(=O)c6ccccc6)c[nH]c45)CC3)c2c1	28100	
N#Cc1ccc2[nH]cc(CCCN3CCN(c4cccc5c4ccn5S(=O)(=O)c4ccccc4)CC3)c2c1	1700	
O=S(=O)(c1ccccc1)c1c[nH]c2c(C3CCN(CCCc4c[nH]c5ccc(F)cc45)CC3)cccc12	5000	
O=c1[nH]c2c(N3CCN(CCc4c[nH]c5ccc(F)cc45)CC3)cccc2n1Cc1ccccc1	3900	Ki [2]: 116 nM
Cc1c(OCc2ccccc2)cccc1N1CCN(CCCc2c[nH]c3ccc(F)cc23)CC1	3300	
N#Cc1ccc2[nH]cc(CCCCN3CCN(c4cccc5c4ccn5S(=O)(=O)c4ccccc4)CC3)c2c1	1600	
O=S(=O)(c1ccccc1)n1ccc2c(N3CCN(CCCc4c[nH]c5ccc(Cl)cc45)CC3)cccc21	700	
O=S(=O)(c1ccccc1)c1c[nH]c2c(C3CCN(CCc4c[nH]c5ccc(F)cc45)CC3)cccc12	29300	Ki [2]: 25 nM
N#Cc1ccc2[nH]cc(CCN3CCN(c4cccc5c4[nH]c(=O)n5Cc4ccccc4)CC3)c2c1	1700	
O=S(=O)(c1ccccc1)c1c[nH]c2c(C3CCN(CCc4c[nH]c5ccc(Cl)cc45)CC3)cccc12	7000	
O=c1[nH]c2c(N3CCN(CCCc4c[nH]c5ccc(F)cc45)CC3)cccc2n1Cc1ccccc1	2500	
Cc1c(OCc2ccccc2)cccc1N1CCN(CCCc2c[nH]c3ccc(C#N)cc23)CC1	1100	
O=c1[nH]c2c(N3CCN(CCCc4c[nH]c5ccc(Cl)cc45)CC3)cccc2n1Cc1ccccc1	2500	
N#Cc1ccc2[nH]cc(CCCCN3CCN(c4cccc5c4[nH]c(=O)n5Cc4ccccc4)CC3)c2c1	1100	
Cc1c(OCc2ccccc2)cccc1N1CCN(CCCCc2c[nH]c3ccc(C#N)cc23)CC1	4900	
O=S(=O)(c1ccccc1)c1c[nH]c2c(C3CCN(CCCc4c[nH]c5ccc(Cl)cc45)CC3)cccc12	9500	
N#Cc1ccc2[nH]cc(CCCCN3CCC(c4cccc5c(S(=O)(=O)c6ccccc6)c[nH]c45)CC3)c2c1	4600	
